Our source for the relative viability values is the supplement of paper PMC10307832.

Assay in all cases: relative viability (nuclei count vs DMSO), 5 days (fraction); higher = more cells survive
Compound in the experiment “GSK-J4 + Bortezomib”: CCOC(=O)CCNc1cc(N2CCc3ccccc3CC2)nc(-c2ccccn2)n1 [GSK-J4] + CC(C)C[C@H](NC(=O)[C@H](Cc1ccccc1)NC(=O)c1cnccn1)B(O)O [Bortezomib] (partner 0.002 µM)
In outline:
(§1)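 Cells from lung cancer lines were seeded into 1536-well plates and, one day later, dosed by pin tool. Treatments were either a single drug or a fixed dose of an anchor drug with five library-drug doses (not always all listed) in √10 steps. After 5 days, nuclei were stained in a one-step fixation (final 0.05% Triton X-100, 1% formaldehyde, 1 ug/ml Hoechst) and counted on 4× images, and relative viability is the treated-to-vehicle nuclei ratio, as the median of duplicate plates.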

Compound in the experiment “AZ3146 + OSI-027”: CN1CCC(CC1)OC2=CC(=C(C=C2)NC3=NC=C4C(=N3)N(C(=O)N4C)C5CCCC5)OC [AZ3146] + COc1cccc2cc(-c3nc([C@H]4CC[C@H](C(=O)O)CC4)n4ncnc(N)c34)[nH]c12 [OSI-027] (partner 0.5 µM)
In outline:
as §1

Compound in the experiment “AZ3146 + Decitabine”: CN1CCC(CC1)OC2=CC(=C(C=C2)NC3=NC=C4C(=N3)N(C(=O)N4C)C5CCCC5)OC [AZ3146] + Nc1ncn([C@H]2C[C@H](O)[C@@H](CO)O2)c(=O)n1 [Decitabine] (partner 2 µM)
The method in brief: as §1

Compound in the experiment “GSK-J4 + Vorinostat”: CCOC(=O)CCNc1cc(N2CCc3ccccc3CC2)nc(-c2ccccn2)n1 [GSK-J4] + O=C(CCCCCCC(=O)Nc1ccccc1)NO [Vorinostat] (partner 1 µM)
In outline: as §1

Consider UMC-11, for which the relative viability with GSK-J4 + Bortezomib (first compound 0.5 µM) turned out to be 0.774; in the experiment with GSK-J4 + Bortezomib (first compound 1.581 µM), 0.263; with GSK-J4 + Bortezomib (first compound 5 µM), 0.434; with GSK-J4 + Bortezomib (first compound 15.81 µM), 0.759; in the experiment with GSK-J4 + Bortezomib (first compound 50 µM), 0.561; in the experiment with AZ3146 + OSI-027 (first compound 0.08 µM), 0.462. Moreover, the relative viability was determined as 0.46 with AZ3146 + OSI-027 (first compound 0.253 µM); 0.425 in the experiment with AZ3146 + OSI-027 (first compound 0.8 µM); 0.475 in the experiment with AZ3146 + OSI-027 (first compound 2.53 µM); 0.314 with AZ3146 + OSI-027 (first compound 8 µM); 0.435 with AZ3146 + Decitabine (first compound 0.08 µM); 0.558 in the experiment with AZ3146 + Decitabine (first compound 0.253 µM). The relative viability was found to be 0.454 with AZ3146 + Decitabine (first compound 0.8 µM); 0.579 with AZ3146 + Decitabine (first compound 2.53 µM); 0.385 in the experiment with AZ3146 + Decitabine (first compound 8 µM); 0.418 in the experiment with GSK-J4 + Vorinostat (first compound 0.5 µM); 0.364 with GSK-J4 + Vorinostat (first compound 1.581 µM); 0.492 in the experiment with GSK-J4 + Vorinostat (first compound 5 µM). The relative viability with GSK-J4 + Vorinostat (first compound 15.81 µM) came to 0.437; with GSK-J4 + Vorinostat (first compound 50 µM), 0.187.
